Laboratory results taken from paper PMC4038645 (Cancer, 2014).
Read-outs that look alike come from different tables or passages of the source. Marks after values point to notes of the source that are not given here.

What was measured:
[1] = Plasma pharmacokinetics of sunitinib and N-desethyl sunitinib; assay type: in vivo, human; conditions: for half-life: n=1
ABCB1 = conditions: cited from earlier work
ABCG2 = conditions: cited from earlier work
CYP3A4 = conditions: cited from earlier work
[2] = test system: solid or hematologic malignancy; assay: Response assessment after every two cycles; assay type: in vivo, human; conditions: 17 patients evaluable for response
[3] = phase III trial, 50mg/day, cited from earlier work
[4] = human, in vivo, 6 weeks (cycle 1)

CCNCCNC(=O)c1c(C)[nH]c(/C=C2\C(=O)Nc3ccc(F)cc32)c1C [N-desethyl sunitinib]
decrease in AUC0–24h compared to NNRTI ([1]; human, in vivo): 40%
decrease in Cmax compared to NNRTI ([1]; human, in vivo): 48%
increase in AUC0–24h compared to NNRTI ([1]; human, in vivo): 390%
increase in Cmax compared to NNRTI ([1]; human, in vivo): 410%
substrate for ABCB1 drug transporter (ABCB1): substrates
substrate for ABCG2 drug transporter (ABCG2): substrates

O=C1Nc2ccc(Cl)cc2[C@@](C#CC2CC2)(C(F)(F)F)O1 [efavirenz]
induction of CYP3A4 (CYP3A4): known inducer

CCN(CC)CCNC(=O)c1c(C)[nH]c(/C=C2\C(=O)Nc3ccc(F)cc32)c1C [sunitinib, Sunitinib malate]
correlation between hand-foot syndrome and elevated Cmin,ss ([1]; Mann–Whitney U-test, p=0.013): There was a correlation
Cmax ([1]; Ritonavir group, sunitinib 37.5 mg/day, Cycle 1 Day 1, mean±SD): 19.9±5.9 (6) ng/mL
T1/2 ([1]; Ritonavir group, sunitinib 37.5 mg/day, actual values (n=2)): 86.8 h
AUC(0-t) ([1]; human, in vivo, 37.5 mg/day): 338 ± 99 ng·h/mL
fraction unbound ([1]; human, in vivo, 37.5 mg/day): 0.067 ± 0.021
half-life ([1]; human, plasma, oral, 25 mg/day, T1/2, Ritonavir group, sunitinib 25 mg/day): 66 h
Tmax ([1]; human, plasma, oral, 50 mg/day): 7.5 h
half-life ([1]; human, plasma, oral, 50 mg/day, T1/2, NNRTI group, sunitinib 50 mg/day): 63.6 h
objective response to therapy [2]: No patient experienced an objective response
ALT/AST Elevation All Grade (%) (human, in vivo): 2 (11)
ALT/AST Elevation ≥G3 (%) (human, in vivo): 0 (0)
Abdominal Pain All Grade (%) (human, in vivo): 2 (11)
Abdominal Pain ≥G3 (%) (human, in vivo): 0 (0)
Anemia All Grade (%) (human, in vivo): 3 (16)
Anemia ≥G3 (%) (human, in vivo): 1 (5)
Anorexia ≥G3 (%) (human, in vivo): 0 (0)
Constipation All Grade (%) (human, in vivo): 2 (11)
Constipation ≥G3 (%) (human, in vivo): 0 (0)
Cough ≥G3 (%) (human, in vivo): 0 (0)
Diarrhea All Grade (%) (human, in vivo): 9 (47)
Diarrhea ≥G3 (%) (human, in vivo): 1 (5)
Epistaxis ≥G3 (%) (human, in vivo): 0 (0)
Fatigue All Grade (%) (human, in vivo): 8 (42)
Fatigue ≥G3 (%) (human, in vivo): 0 (0)
Headache All Grade (%) (human, in vivo): 2 (11)
Headache ≥G3 (%) (human, in vivo): 0 (0)
Hypertension All Grade (%) (human, in vivo): 4 (21)
Hypertension ≥G3 (%) (human, in vivo): 0 (0)
Hypopigmentation All Grade (%) (human, in vivo): 2 (11)
Hypopigmentation ≥G3 (%) (human, in vivo): 0 (0)
Mucositis All Grade (%) (human, in vivo): 3 (16)
Mucositis ≥G3 (%) (human, in vivo): 0 (0)
Myalgia/Limb Pain All Grade (%) (human, in vivo): 2 (11)
Myalgia/Limb Pain ≥G3 (%) (human, in vivo): 0 (0)
Nausea/Vomiting All Grade (%) (human, in vivo): 6 (32)
Nausea/Vomiting ≥G3 (%) (human, in vivo): 0 (0)
Neutropenia All Grade (%) (human, in vivo): 10 (53)
Neutropenia ≥G3 (%) (human, in vivo): 6 (32)
Rash ≥G3 (%) (human, in vivo): 0 (0)
Thrombocytopenia All Grade (%) (human, in vivo): 3 (16)
Thrombocytopenia ≥G3 (%) (human, in vivo): 0 (0)
Wound Dehiscence All Grade (%) (human, in vivo): 2 (11)
Wound Dehiscence ≥G3 (%) (human, in vivo): 1 (5)
ALT/AST Elevation All Grade (%) (human, in vivo, 6 weeks): 2 (11)
ALT/AST Elevation ≥G3 (%) (human, in vivo, 6 weeks): 0 (0)
Constipation All Grade (%) (human, in vivo, 6 weeks): 1 (5)
Constipation ≥G3 (%) (human, in vivo, 6 weeks): 0 (0)
Diarrhea All Grade (%) (human, in vivo, 6 weeks): 8 (42)
Diarrhea ≥G3 (%) (human, in vivo, 6 weeks): 0 (0)
Fatigue All Grade (%) (human, in vivo, 6 weeks): 7 (37)
Fatigue ≥G3 (%) (human, in vivo, 6 weeks): 0 (0)
Hypertension All Grade (%) (human, in vivo, 6 weeks): 3 (16)
Hypertension ≥G3 (%) (human, in vivo, 6 weeks): 0 (0)
Mucositis All Grade (%) (human, in vivo, 6 weeks): 2 (11)
Mucositis ≥G3 (%) (human, in vivo, 6 weeks): 0 (0)
Nausea/Vomiting All Grade (%) (human, in vivo, 6 weeks): 3 (16)
Nausea/Vomiting ≥G3 (%) (human, in vivo, 6 weeks): 0 (0)
Anemia All Grade (%) [4]: 2 (11)
Anemia ≥G3 (%) [4]: 1 (5)
Neutropenia All Grade (%) [4]: 10 (53)
Neutropenia ≥G3 (%) [4]: 5 (26)
Thrombocytopenia All Grade (%) [4]: 2 (11)
Thrombocytopenia ≥G3 (%) [4]: 0 (0)
Wound Dehiscence All Grade (%) [4]: 2 (11)
Wound Dehiscence ≥G3 (%) [4]: 1 (5) ^#
recommended dose (patients on ritonavir, 4 week on/2 week off schedule): 37.5 mg/day
MTD (patients on ritonavir, daily, 4 weeks on/2 weeks off): 37.5 mg
rate of grade 3 or 4 neutropenia ([3]; gastrointestinal stromal tumors): 10%
rate of grade 3 or 4 neutropenia ([3]; primitive neuroectodermal tumors): 16%
rate of grade 3 or 4 neutropenia ([3]; renal cell carcinoma): 17%
substrate for ABCB1 drug transporter (ABCB1): substrates
substrate for ABCG2 drug transporter (ABCG2): substrates
